# Values of other authors, collected in PubChem BioAssay AID1259409 (Chemical Carcinogenesis Research Information System (CCRIS), 2018).
# Tested on: rodent chemically induced tumor inhibition, incidence and multiplicity
# Test: CCRIS tumor inhibitor studies
# Conditions: Dose [Inhibitor]: 0, Route [Inhibitor]: ORAL, Promoter: NONE USED
smiles,measurement,setting,value
CN1C(C(=O)Nc2ccccn2)=C(O)c2ccccc2S1(=O)=O,"tumour outcome (control, treated, inhibition, significance)","Carcinogen: 2-ACETYLAMINOFLUORENE, 53-96-3, 130 PPM IN DIET FOR 18 WK BEGINNING 1 WK PRIOR TO CARCINOGEN TREATMENT (STUDY DURATION: 36 WK), Species: RAT, Strain/Sex: ACI/N/MALE, Target Tissue: Type of Lesion: LIVER: TUMOR, Dose [Carcinogen]: 200 PPM IN DIET FOR 16 WK","10/10 (100%), 1/10 (10%), 90%, p=0.00006"
same,"tumour outcome (control, treated, inhibition, significance)","Carcinogen: 4-(METHYLNITROSAMINO)-1-(3-PYRIDYL-1-BUTANONE, 64091-91-4, 25 MG/KG IN DIET FOR 25 WK BEGINNING 2 WK PRIOR TO CARCINOGEN TREATMENT (STUDY DURATION: 25 WK), Species: MOUSE, Strain/Sex: STRAIN-A/FEMALE, Target Tissue: Type of Lesion: FORESTOMACH: TUMOR, Dose [Carcinogen]: 9.1 MG IN DRINKING WATER FOR 7 WK","7/25 (28%), 2/24 (8%), 71%, not significant"
same,"tumour outcome (control, treated, inhibition, significance)","Carcinogen: 7,12-DIMETHYLBENZ[A]ANTHRACENE, 57-97-6, 0.01% IN HIGH-FAT (20% SOYBEAN OIL) DIET FOR 20 WK BEGINNING 1 WK POST CARCINOGEN DOSE (STUDY DURATION: 21 WK), Species: RAT, Strain/Sex: SPRAGUE-DAWLEY/FEMALE, Target Tissue: Type of Lesion: MAMMARY GLAND: ADENOCARCINOMA, Dose [Carcinogen]: 5 MG ONCE","17/20 (85%), 19/21 (90%), -6%, not significant"
same,"tumour outcome (control, treated, inhibition, significance)","Carcinogen: 7,12-DIMETHYLBENZ[A]ANTHRACENE, 57-97-6, 0.01% IN LOW-FAT (0.5% SOYBEAN OIL) DIET FOR 20 WK BEGINNING 1 WK POST CARCINOGEN DOSE (STUDY DURATION: 21 WK), Species: RAT, Strain/Sex: SPRAGUE-DAWLEY/FEMALE, Target Tissue: Type of Lesion: MAMMARY GLAND: ADENOCARCINOMA, Dose [Carcinogen]: 5 MG ONCE","10/18 (56%), 9/20 (45%), 20%, not significant"
same,"tumour outcome (control, treated, inhibition, significance)","Carcinogen: AZOXYMETHANE, 25843-45-2, 25 PPM IN DIET BEGINNING 1 WK POST CARCINOGEN DOSE FOR DURATION OF STUDY (STUDY DURATION: 56 WK), Species: RAT, Strain/Sex: F344/MALE, Target Tissue: Type of Lesion: COLON: ADENOCARCINOMA, Dose [Carcinogen]: 29.6 MG/KG IN NORMAL SALINE ONCE","17/30 (57%), 10/30 (33%), 41%, not calculated"
same,"tumour outcome (control, treated, inhibition, significance)","Carcinogen: AZOXYMETHANE, 25843-45-2, 25 PPM IN DIET BEGINNING 1 WK POST CARCINOGEN DOSE FOR DURATION OF STUDY (STUDY DURATION: 56 WK), Species: RAT, Strain/Sex: F344/MALE, Target Tissue: Type of Lesion: COLON: ADENOMA, Dose [Carcinogen]: 29.6 MG/KG IN NORMAL SALINE ONCE","11/30 (37%), 16/30 (53%), -43%, not calculated"
same,"tumour outcome (control, treated, inhibition, significance)","Carcinogen: AZOXYMETHANE, 25843-45-2, 25 PPM IN DIET BEGINNING 1 WK POST CARCINOGEN DOSE FOR DURATION OF STUDY (STUDY DURATION: 56 WK), Species: RAT, Strain/Sex: F344/MALE, Target Tissue: Type of Lesion: SMALL INTESTINE: ADENOCARCINOMA, Dose [Carcinogen]: 29.6 MG/KG IN NORMAL SALINE ONCE","10/30 (33%), 7/30 (23%), 30%, not calculated"
same,"tumour outcome (control, treated, inhibition, significance)","Carcinogen: AZOXYMETHANE, 25843-45-2, 25 PPM IN DIET BEGINNING 1 WK POST CARCINOGEN DOSE FOR DURATION OF STUDY (STUDY DURATION: 56 WK), Species: RAT, Strain/Sex: F344/MALE, Target Tissue: Type of Lesion: SMALL INTESTINE: ADENOMA, Dose [Carcinogen]: 29.6 MG/KG IN NORMAL SALINE ONCE","1/30 (3%), 0/30 (0%), 100%, not significant"
same,"tumour outcome (control, treated, inhibition, significance)","Carcinogen: AZOXYMETHANE, 25843-45-2, 75 PPM IN DIET BEGINNING 1 WK POST CARCINOGEN DOSE FOR DURATION OF STUDY (STUDY DURATION: 56 WK), Species: RAT, Strain/Sex: F344/MALE, Target Tissue: Type of Lesion: COLON: ADENOCARCINOMA, Dose [Carcinogen]: 29.6 MG/KG IN NORMAL SALINE ONCE","17/30 (57%), 6/30 (20%), 65%, p<0.05"
same,"tumour outcome (control, treated, inhibition, significance)","Carcinogen: AZOXYMETHANE, 25843-45-2, 75 PPM IN DIET BEGINNING 1 WK POST CARCINOGEN DOSE FOR DURATION OF STUDY (STUDY DURATION: 56 WK), Species: RAT, Strain/Sex: F344/MALE, Target Tissue: Type of Lesion: COLON: ADENOMA, Dose [Carcinogen]: 29.6 MG/KG IN NORMAL SALINE ONCE","11/30 (37%), 14/30 (47%), -27%, not calculated"
same,"tumour outcome (control, treated, inhibition, significance)","Carcinogen: AZOXYMETHANE, 25843-45-2, 75 PPM IN DIET BEGINNING 1 WK POST CARCINOGEN DOSE FOR DURATION OF STUDY (STUDY DURATION: 56 WK), Species: RAT, Strain/Sex: F344/MALE, Target Tissue: Type of Lesion: SMALL INTESTINE: ADENOCARCINOMA, Dose [Carcinogen]: 29.6 MG/KG IN NORMAL SALINE ONCE","10/30 (33%), 9/30 (30%), 10%, not calculated"
same,"tumour outcome (control, treated, inhibition, significance)","Carcinogen: AZOXYMETHANE, 25843-45-2, 75 PPM IN DIET BEGINNING 1 WK POST CARCINOGEN DOSE FOR DURATION OF STUDY (STUDY DURATION: 56 WK), Species: RAT, Strain/Sex: F344/MALE, Target Tissue: Type of Lesion: SMALL INTESTINE: ADENOMA, Dose [Carcinogen]: 29.6 MG/KG IN NORMAL SALINE ONCE","1/30 (3%), 2/30 (7%), -133%, not calculated"
same,"tumour outcome (control, treated, inhibition, significance)","Carcinogen: AZOXYMETHANE, 25843-45-2, 75 PPM IN THE DIET FOR 28 WK BEGINNING 2 WK PRIOR TO CARCINOGEN TREATMENT (STUDY DURATION: 30 WK), Species: RAT, Strain/Sex: F344/MALE, Target Tissue: Type of Lesion: COLON: TUMOR, Dose [Carcinogen]: 15 MG/KG BW 1/WK FOR 2 WK","20/43 (47%), 19/56 (34%), 28%, p<0.05"
same,"tumour outcome (control, treated, inhibition, significance)","Carcinogen: AZOXYMETHANE, 25843-45-2, 150 PPM IN DIET BEGINNING 1 WK POST CARCINOGEN DOSE FOR DURATION OF STUDY (STUDY DURATION: 56 WK), Species: RAT, Strain/Sex: F344/MALE, Target Tissue: Type of Lesion: COLON: ADENOCARCINOMA, Dose [Carcinogen]: 29.6 MG/KG IN NORMAL SALINE ONCE","17/30 (57%), 7/30 (23%), 59%, p<0.05"
